Patent US12655116B2, “Substituted isophthalic acid diamides” (Bayer Aktiengesellschaft, priority 2020, dated 2026)

What was measured:
MATIN [1] = test: Pre-emergence herbicidal action against MATIN; format: in vivo, Matricaria inodora
Summary of the method: (§1)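 Herbicidal effect was assessed 3 weeks after treatment by visual comparison with untreated controls, 100% denoting dead plants. Aqueous WP or EC preparations had been applied at 600 to 800 l/ha with 0.2% wetting agent to the soil covering freshly sown seeds.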

AVEFA = test: Pre-emergence herbicidal action against AVEFA; format: in vivo, Avena fatua; details: 80 g/ha, pre-emergence
Summary of the method: as §1

ALOMY [2] = test: Pre-emergence herbicidal action against ALOMY; format: in vivo, Alopecurus myosuroides; details: 80 g/ha, pre-emergence, scored visually after 3 weeks vs untreated controls (100% = plants have died, 0% = like control plants)
Summary of the method: as §1

ABUTH = test: Pre-emergence herbicidal action against ABUTH; format: in vivo, Abutilon theophrasti
Summary of the method: as §1

ECHCG [3] = test: Post-emergence herbicidal action against ECHCG; format: in vivo, Echinochloa crus-galli; details: dosage 20 g/ha
Summary of the method: (§2)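 Post-emergence greenhouse test; one-leaf stage, 2–3 wk post-sowing, sandy loam. Foliar spray of WP/EC in water, 600–800 l/ha, +0.2% wetting agent. Visual % action at ~3 wk vs untreated (100% = plants dead).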

ECHCG [4] = test: Pre-emergence herbicidal action against ECHCG; format: in vivo, Echinochloa crus-galli
Summary of the method: as §1

DIGSA = test: Pre-emergence herbicidal action against DIGSA; format: in vivo, Digitaria sanguinalis
Summary of the method: as §1

POLCO [5] = test: Pre-emergence herbicidal action against POLCO; format: in vivo, Polygonum convolvulus; details: dosage 80 g/ha
Summary of the method: as §1

PHBPU [6] = test: Post-emergence herbicidal action against PHBPU; format: in vivo, Pharbitis purpurea; details: dosage 20 g/ha
Summary of the method: as §2

AMARE = test: Pre-emergence herbicidal action against AMARE; format: in vivo, Amaranthus retroflexus
Summary of the method: as §1

ALOMY [7] = test: Post-emergence herbicidal action against ALOMY; format: in vivo, Alopecurus myosuroides; details: dosage 20 g/ha, visual assessment about 3 weeks after treatment vs untreated controls
Summary of the method: as §2

POLCO [8] = test: Post-emergence herbicidal action against POLCO; format: in vivo, Polygonum convolvulus; details: dosage 20 g/ha
Summary of the method: as §2

VIOTR [9] = test: Post-emergence herbicidal action against VIOTR; format: in vivo, Viola tricolor
Summary of the method: as §2

MATIN [10] = test: Post-emergence herbicidal action against MATIN; format: in vivo, Matricaria inodora
Summary of the method: as §2

PHBPU [11] = test: Pre-emergence herbicidal action against PHBPU; format: in vivo, Pharbitis purpurea; details: dosage 80 g/ha
Summary of the method: as §1

VIOTR [12] = test: Pre-emergence herbicidal action against VIOTR; format: in vivo, Viola tricolor
Summary of the method: as §1

VERPE [13] = test: Pre-emergence herbicidal action against VERPE; format: in vivo, Veronica persica
Summary of the method: as §1

SETVI = test: Pre-emergence herbicidal action against SETVI; format: in vivo, Setaria viridis; details: dosage 80 g/ha
Summary of the method: as §1

VERPE [14] = test: Post-emergence herbicidal action against VERPE; format: in vivo, Veronica persica
Summary of the method: as §2

[15] = 80 g/ha, scored visually after 3 weeks vs untreated controls (100% = plants have died, 0% = like control plants)

For `CC(NC(=O)c1c(Br)ccc(C(=O)Nc2nnnn2C)c1Cl)C1CC1` (centres unmarked) [Example 1-183], the “Pre-emergence action against MATIN in %” value (MATIN [1]; dosage 20 g/ha) was 90%, the “Pre-emergence action against MATIN in %” value (MATIN [1]; dosage 80 g/ha) was 100% and the “Pre-emergence action against AVEFA in %” value (AVEFA) was 90%. For the same molecule, the “Pre-emergence action against ALOMY (herbicidal activity)” value (ALOMY [2]) was 90%, the “Pre-emergence action against ABUTH (herbicidal activity)” value (ABUTH; [15]) was 100% and the “Pre-emergence action against ABUTH (herbicidal activity in percent)” value (ABUTH; dosage 20 g/ha, scored visually after 3 weeks vs untreated controls, 100% = plants have died, 0% = like control plants) was 100%. For the same molecule, the “Post-emergence action against ECHCG in %” value (ECHCG [3]) was 100%, the “Pre-emergence action against ECHCG in %” value (ECHCG [4]; 20 g/ha) was 90% and the “Pre-emergence action against ECHCG in %” value (ECHCG [4]; 80 g/ha) was 100%. For the same molecule, the “Pre-emergence action against DIGSA in %” value (DIGSA; dosage 20 g/ha) was 100%, the “Pre-emergence action against DIGSA in %” value (DIGSA; dosage 80 g/ha) was 100% and the “Pre-emergence action against POLCO in %” value (POLCO [5]) was 80%. The “Post-emergence action against PHBPU in %” value (PHBPU [6]) was 80%, the “Pre-emergence action against AMARE in %” value (AMARE; 20 g/ha, scored visually after 3 weeks vs untreated controls, 100% = plants have died, 0% = like control plants) was 100% and the “Pre-emergence action against AMARE in %” value (AMARE; [15]) was 100%. For the same molecule, the “Post-emergence action against ALOMY in %” value (ALOMY [7]) was 90%, the “Post-emergence action against POLCO in %” value (POLCO [8]) was 100% and the “Post-emergence action against VIOTR in %” value (VIOTR [9]; 5 g/ha) was 90%. The “Post-emergence action against VIOTR in %” value (VIOTR [9]; 20 g/ha) was 90%, the “Post-emergence action against MATIN in %” value (MATIN [10]; dosage 5 g/ha) was 90% and the “Post-emergence action against MATIN in %” value (MATIN [10]; dosage 20 g/ha) was 90%. The “Pre-emergence action against PHBPU in %” value (PHBPU [11]) was 90%, the “Pre-emergence action against VIOTR in %” value (VIOTR [12]; dosage 20 g/ha) was 100% and the “Pre-emergence action against VIOTR in %” value (VIOTR [12]; dosage 80 g/ha) was 100%. The “Pre-emergence action against VERPE in %” value (VERPE [13]; dosage 20 g/ha) was 90%, the “Pre-emergence action against VERPE in %” value (VERPE [13]; dosage 80 g/ha) was 100% and the “Pre-emergence action against SETVI in %” value (SETVI) was 100%. For the same molecule, the “Post-emergence action against VERPE in %” value (VERPE [14]; 5 g/ha) was 80% and the “Post-emergence action against VERPE in %” value (VERPE [14]; 20 g/ha) was 90%.
